{"source": "ChEMBL document CHEMBL1139677", "about": "“DNA interstrand crosslinking agents: synthesis, DNA interactions, and cytotoxicity of dimeric achiral seco-amino-CBI and conjugates of achiral seco-amino-CBI with pyrrolobenzodiazepine (PBD)” (Bioorg Med Chem Lett, 2006)", "key": {"P815 [1]": {"system": "P815", "experiment": "Cytotoxicity against mouse P815 cells after 3 days", "type": "cell-based", "conditions": "P815, 72 h"}, "[2]": {"experiment": "Induction of supercoiled pBR322 DNA strand cleavage at 6.6 uM", "type": "functional"}, "[3]": {"experiment": "Induction of linear pBR322 DNA interstrand crosslinking at 10 uM", "type": "functional"}, "P815 [4]": {"system": "P815", "experiment": "Cell cycle arrest in mouse P815 cells by accumulation at subG0 phase at 0.026 uM", "type": "functional"}, "[5]": {"experiment": "Induction of pBR322 DNA alkylation at 10 uM by thermally induced cleavage assay", "type": "functional"}, "[6]": {"experiment": "Induction of pBR322 DNA alkylation at 1 uM by thermally induced cleavage assay", "type": "functional"}, "[7]": {"experiment": "Induction of linear pBR322 DNA interstrand crosslinking", "type": "functional"}, "[8]": {"experiment": "Induction of pBR322 DNA alkylation at 100 uM by thermally induced cleavage assay", "type": "functional"}, "[9]": {"experiment": "Induction of supercoiled pBR322 DNA strand cleavage", "type": "functional"}, "[10]": {"experiment": "Induction of pBR322 DNA alkylation at 0.1 uM by thermally induced cleavage assay", "type": "functional"}}, "note": "Calls of active or inactive are those of the source. The rule behind the calls is not given here.", "data": [{"smiles": "COc1cc2c(cc1OCCC(=O)Nc1ccc3oc(C(=O)Nc4cc(N)c5ccccc5c4CCCl)cc3c1)N=C[C@@H]1CCCN1C2=O", "values": [{"measurement": "IC50", "setting": "P815 [1]", "value": 26, "unit": "nM"}, {"measurement": "Activity", "setting": "[2]", "value": 16, "unit": "%"}, {"measurement": "Activity", "setting": "[3]", "value": "Active"}, {"measurement": "Activity", "setting": "P815 [4]", "value": 21, "unit": "%"}, {"measurement": "Activity", "setting": "[5]", "value": "Active"}, {"measurement": "Activity", "setting": "[6]", "value": "Active"}]}, {"smiles": "COc1cc2cc(C(=O)N3CC(CCl)c4c3cc(O)c3ccccc43)[nH]c2c(OC)c1OC", "note": "(stereo not given)", "values": [{"measurement": "IC50", "setting": "P815 [1]", "value": 8.6, "unit": "nM"}]}, {"smiles": "COc1cc2cc(C(=O)Nc3cc(N)c4ccccc4c3CCCl)[nH]c2c(OC)c1OC", "note": "[CENTANAMYCIN]", "values": [{"measurement": "IC50", "setting": "P815 [1]", "value": 68, "unit": "nM"}]}, {"smiles": "Nc1cc(NC(=O)c2cc3cc(NC(=O)Nc4ccc5oc(C(=O)Nc6cc(N)c7ccccc7c6CCCl)cc5c4)ccc3o2)c(CCCl)c2ccccc12", "values": [{"measurement": "IC50", "setting": "P815 [1]", "value": 42000, "unit": "nM"}]}, {"smiles": "C=C1C[C@H]2C=Nc3cc(OCCCOc4cc5c(cc4OC)C(=O)N4CC(=C)C[C@H]4C=N5)c(OC)cc3C(=O)N2C1", "values": [{"measurement": "Activity", "setting": "[7]", "value": "Active"}]}, {"smiles": "COc1cc2c(cc1OCCC(=O)Nc1ccc3oc(C(=O)Nc4cc(O)ccc4CCCl)cc3c1)N=C[C@@H]1CCCN1C2=O", "values": [{"measurement": "IC50", "setting": "P815 [1]", "value": 560, "unit": "nM"}]}, {"smiles": "COC(=O)CCOc1cc2c(cc1OC)C(=O)N1CCC[C@H]1C=N2", "values": [{"measurement": "IC50", "setting": "P815 [1]", "value": 55000, "unit": "nM"}, {"measurement": "Activity", "setting": "[8]", "value": "inactive"}, {"measurement": "Activity", "setting": "[9]", "value": 4, "unit": "%"}]}, {"smiles": "COc1c(O)c2c(c3cc(C(=O)N4CCc5c4c(O)c(OC)c4[nH]c(C(=O)N6C[C@H]7C[C@@]78C6=CC(=O)c6[nH]cc(C)c68)cc54)[nH]c13)CCN2C(N)=O", "values": [{"measurement": "Activity", "setting": "[10]", "value": "Active"}]}]}
